Data taken from the supplement of paper PMC10883282.
± gives the standard deviation of the averaged measurements.

Tested on: VA-ES-BJ
Assay: relative viability vs DMSO control (72 h) (fraction); higher = more viable cells
Procedure, shortened: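 Sarcoma cell lines went into 384-well plates at densities chosen to reach 80–90% confluence. After 24 h, each well received 2.5 µl of serially diluted compound, with source plates running from 10 mM to 0.0002 mM, and the plates were kept 72 h at 37 °C, 5% CO2, alongside 0.1% DMSO vehicle and a 5 µM positive control. Relative viability was derived from ATPLite readings as percent growth and averaged over up to triplicate wells. The data were then rescaled so that 1 stands for full and 0 for none.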

SMILES	relative viability (0.00017 µM)	relative viability (0.00051 µM)	relative viability (0.00152 µM)	relative viability (0.00457 µM)	relative viability (0.01372 µM)	relative viability (0.04115 µM)	relative viability (0.1235 µM)	relative viability (0.3704 µM)	relative viability (1.111 µM)	relative viability (3.333 µM)	relative viability (10 µM)
C=CC(=O)Nc1cccc(Oc2nc(Nc3ccc(N4CCN(C)CC4)cc3)nc3ccsc23)c1 [Olmutinib]	1.01 ± 0.052	1.01 ± 0.029	1.01 ± 0.029	1.01 ± 0.027	1.02 ± 0.043	1 ± 0.039	0.996 ± 0.052	0.96 ± 0.065	0.905 ± 0.06	0.786 ± 0.038	0.534 ± 0.013
COc1cc2c(Oc3ccc4[nH]c(C)cc4c3F)ncnc2cc1OCCCN1CCCC1 [Cediranib]	1.05 ± 0.045	1.03 ± 0.055	1.04 ± 0.048	1.06 ± 0.038	1.04 ± 0.029	1.07 ± 0.067	1.09 ± 0.068	1.13 ± 0.065	1.15 ± 0.051	1.15 ± 0.022	1.13 ± 0.01
Cc1cnc(Nc2ccc(OCCN3CCCC3)cc2)nc1Nc1cccc(S(=O)(=O)NC(C)(C)C)c1 [Fedratinib]	1.06 ± 0.042	1.08 ± 0.013	1.03 ± 0.023	1.05 ± 0.021	1.04 ± 0.013	1 ± 0.037	1.02 ± 0.032	0.781 ± 0.018	0.403 ± 0.019	0.152 ± 0.0076	-0.0115 ± 0.0047
CCCS(=O)(=O)Nc1ccc(F)c(C(=O)c2c[nH]c3ncc(-c4ccc(Cl)cc4)cc23)c1F [Vemurafenib]	1.09 ± 0.048	1.08 ± 0.058	1.04 ± 0.063	1.06 ± 0.039	1.074 ± 0.0083	1.06 ± 0.042	1.09 ± 0.017	1.12 ± 0.056	1.12 ± 0.043	1.02 ± 0.042	0.769 ± 0.03
Cn1cnc2c(F)c(Nc3ccc(Br)cc3F)c(C(=O)NOCCO)cc21 [Binimetinib]	1.06 ± 0.011	1.09 ± 0.032	1.07 ± 0.037	1.02 ± 0.028	1.02 ± 0.044	0.966 ± 0.027	0.946 ± 0.071	0.921 ± 0.069	0.879 ± 0.046	0.794 ± 0.041	0.689 ± 0.058
COc1c(OCCCN2CCOCC2)ccc2c1N=C(NC(=O)c1cnc(N)nc1)N1CCN=C21 [Copanlisib]	1.09 ± 0.027	0.983 ± 0.071	1.066 ± 0.0069	0.74 ± 0.026	0.594 ± 0.029	0.484 ± 0.017	0.42 ± 0.022	0.396 ± 0.041	0.406 ± 0.019	0.394 ± 0.095	0.304 ± 0.16
COc1cc2nccc(Oc3ccc(NC(=O)Nc4cc(C)on4)c(Cl)c3)c2cc1OC [Tivozanib]	1.04 ± 0.022	1.07 ± 0.017	1.05 ± 0.019	1.05 ± 0.025	1.05 ± 0.026	1.05 ± 0.028	1.1 ± 0.04	1.14 ± 0.048	1.16 ± 0.1	1.16 ± 0.12	0.812 ± 0.065
CC[C@H](Nc1ncnc2[nH]cnc12)c1nc2cccc(F)c2c(=O)n1-c1ccccc1 [Idelalisib]	1.12 ± 0.01	1.12 ± 0.052	1.09 ± 0.015	1.09 ± 0.071	1.06 ± 0.03	1.07 ± 0.041	1.05 ± 0.026	1.03 ± 0.053	0.931 ± 0.041	0.872 ± 0.035	0.705 ± 0.038
Cc1cc(C)c(/C=C2\C(=O)Nc3ccccc32)[nH]1 [Semaxanib]	0.973 ± 0.027	0.969 ± 0.045	0.969 ± 0.039	0.97 ± 0.023	0.948 ± 0.016	0.914 ± 0.014	0.922 ± 0.021	0.901 ± 0.048	0.889 ± 0.043	0.902 ± 0.016	0.855 ± 0.078
Cc1ccc(F)c(NC(=O)Nc2ccc(-c3cccc4[nH]nc(N)c34)cc2)c1 [Linifanib]	1.05 ± 0.022	1.07 ± 0.041	1.06 ± 0.03	1.07 ± 0.056	1.05 ± 0.025	1.08 ± 0.059	1.07 ± 0.046	1.06 ± 0.056	1.11 ± 0.063	1.11 ± 0.035	1.03 ± 0.047
COCc1c(-c2cc3cc(C)cc(OC)c3s2)c2c(N)ncnn2c1CN1CCNC(=O)C1 [Rogaratinib]	1.074 ± 0.0046	1.07 ± 0.037	1.05 ± 0.036	1.05 ± 0.021	1.06 ± 0.021	1.03 ± 0.042	1.04 ± 0.081	1.02 ± 0.075	1.02 ± 0.063	0.908 ± 0.087	0.568 ± 0.031
N#CC[C@H](C1CCCC1)n1cc(-c2ncnc3[nH]ccc23)cn1 [Ruxolitinib]	1.03 ± 0.03	1.05 ± 0.026	1.002 ± 0.01	1.006 ± 0.0095	1.02 ± 0.014	1.03 ± 0.024	0.987 ± 0.014	0.985 ± 0.025	0.969 ± 0.015	1 ± 0.03	0.8995 ± 0.0059
CCN1CCN(Cc2ccc(Nc3ncc(F)c(-c4cc(F)c5nc(C)n(C(C)C)c5c4)n3)nc2)CC1 [Abemaciclib]	1.02 ± 0.014	1.03 ± 0.0088	1.015 ± 0.0082	1 ± 0.019	0.994 ± 0.037	0.92 ± 0.042	0.779 ± 0.032	0.694 ± 0.018	0.681 ± 0.023	0.562 ± 0.021	0.427 ± 0.056
CNC(=O)c1cc(Oc2ccc(NC(=O)Nc3ccc(Cl)c(C(F)(F)F)c3)c(F)c2)ccn1 [Regorafenib]	1.13 ± 0.018	1.15 ± 0.032	1.1 ± 0.019	1.083 ± 0.0058	1.11 ± 0.035	1.08 ± 0.023	1.18 ± 0.048	1.19 ± 0.08	1.21 ± 0.072	1.24 ± 0.12	0.684 ± 0.048
Nc1cc(C(F)(F)F)c(-c2cc(N3CCOCC3)nc(N3CCOCC3)n2)cn1 [Buparlisib]	1.01 ± 0.043	1 ± 0.053	0.999 ± 0.027	1.01 ± 0.032	0.997 ± 0.035	0.983 ± 0.055	0.875 ± 0.058	0.663 ± 0.018	0.316 ± 0.0056	0.189 ± 0.0041	0.1818 ± 0.0013
CC(C)NC(=O)C1CCC(n2c(NC(=O)c3ccc(F)cc3)nc3ccc(CN4CCC(C(C)(C)O)CC4)cc32)CC1 (stereo not drawn) [Belizatinib]	1.05 ± 0.04	1.07 ± 0.059	1.05 ± 0.064	1.04 ± 0.018	1.08 ± 0.022	1.06 ± 0.046	1 ± 0.017	0.926 ± 0.014	0.658 ± 0.012	0.359 ± 0.012	0.164 ± 0.0087
CC1(C)CNc2cc(NC(=O)c3cccnc3NCc3ccncc3)ccc21 [Motesanib]	0.98 ± 0.021	0.982 ± 0.018	0.976 ± 0.041	1 ± 0.03	0.9877 ± 0.0081	1 ± 0.017	1.011 ± 0.0069	1.02 ± 0.022	1.04 ± 0.042	1.04 ± 0.024	1.03 ± 0.029
CC(=O)Nc1cccc(-n2c(=O)n(C3CC3)c(=O)c3c(Nc4ccc(I)cc4F)n(C)c(=O)c(C)c32)c1 [Trametinib]	1.08 ± 0.043	1.04 ± 0.026	1.02 ± 0.034	0.961 ± 0.038	0.871 ± 0.028	0.811 ± 0.032	0.738 ± 0.029	0.656 ± 0.022	0.628 ± 0.018	0.604 ± 0.019	0.572 ± 0.016
